Measurements from ChEMBL document CHEMBL6153040, “Discovery of the salicylaldehyde-based compound DDO-02267 as a lysine-targeting covalent inhibitor of ALKBH5” (Eur J Med Chem, 2025).
The source made the active and inactive calls. The calls are words filed in the database; no cut-off is given here.

Legend:
[1] = target: T1, Alpha-ketoglutarate-dependent dioxygenase FTO (Homo sapiens, UniProt Q9C0B1); experiment: Inhibition of FTO (32 to 505 residues) (unknown origin) extracted from Escherichia coli BL21 (DE3) cells using m6A ssDNA as substrate incubated for 2 hrs by TBE-PAGE based restriction enzyme digestion assay
T1 sequence (Q9C0B1 whole entry, the tested form may be a part): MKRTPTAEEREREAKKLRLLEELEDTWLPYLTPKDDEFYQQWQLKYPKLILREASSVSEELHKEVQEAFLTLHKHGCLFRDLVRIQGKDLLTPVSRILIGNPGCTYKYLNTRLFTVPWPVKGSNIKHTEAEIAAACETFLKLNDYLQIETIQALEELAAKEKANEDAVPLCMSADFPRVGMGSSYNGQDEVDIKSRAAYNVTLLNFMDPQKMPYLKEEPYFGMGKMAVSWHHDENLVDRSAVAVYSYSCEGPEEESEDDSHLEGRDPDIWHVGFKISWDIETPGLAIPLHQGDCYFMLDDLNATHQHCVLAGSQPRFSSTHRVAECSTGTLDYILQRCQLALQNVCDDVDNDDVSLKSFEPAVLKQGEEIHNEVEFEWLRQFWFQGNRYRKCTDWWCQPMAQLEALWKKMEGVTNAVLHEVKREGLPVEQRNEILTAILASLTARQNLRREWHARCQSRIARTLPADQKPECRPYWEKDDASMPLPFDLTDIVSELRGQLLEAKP

MOLM-13 [2] = experiment: Downregulation of AXL protein expression levels in human MOLM-13 cells at 20 to 80 uM incubated for 72 hrs by Western blot analysis; type: functional, cell-based; details: dose 20-80 µM
[3] = Selectivity ratio of IC50 for ALKBH3 (unknown origin) to IC50 for ALKBH5 (66 to 292 residues) (unknown origin) extracted from Escherichia coli BL21 (DE3) cells by restriction enzyme digestion assay
[4] = Selectivity ratio of IC50 for ALKBH3 (unknown origin) to IC50 for ALKBH5 (66 to 292 residues) (unknown origin) extracted from Escherichia coli BL21 (DE3) cells by fluorescence polarization assay
RNA demethylase ALKBH5 [5] = target: T2, RNA demethylase ALKBH5 (Homo sapiens, UniProt Q6P6C2); experiment: Inhibition of ALKBH5 (66 to 292 residues) (unknown origin) extracted from Escherichia coli BL21 (DE3) cells using m6A ssDNA as substrate measured after 240 mins by fluorescence polarization assay
Target sequence in this assay (Q6P6C2 whole entry, the tested form may be a part): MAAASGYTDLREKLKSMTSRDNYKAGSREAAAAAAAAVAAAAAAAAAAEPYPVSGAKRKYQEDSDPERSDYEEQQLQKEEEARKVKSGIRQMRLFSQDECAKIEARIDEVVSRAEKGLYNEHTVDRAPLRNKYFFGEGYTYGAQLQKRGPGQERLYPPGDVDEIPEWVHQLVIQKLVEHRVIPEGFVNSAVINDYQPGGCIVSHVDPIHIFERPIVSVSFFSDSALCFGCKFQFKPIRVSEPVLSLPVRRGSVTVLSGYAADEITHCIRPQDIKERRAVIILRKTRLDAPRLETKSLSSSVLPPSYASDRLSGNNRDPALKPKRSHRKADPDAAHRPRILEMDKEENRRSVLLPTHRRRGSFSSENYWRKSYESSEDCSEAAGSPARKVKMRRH

RNA demethylase ALKBH5 [6] = target: T2, RNA demethylase ALKBH5; experiment: Inhibition of ALKBH5 (66 to 292 residues) (unknown origin) extracted from Escherichia coli BL21 (DE3) cells using m6A ssDNA as substrate measured after 180 mins by fluorescence polarization assay
Target sequence in this assay (Q6P6C2 whole entry, the tested form may be a part): as above

RNA demethylase ALKBH5 [7] = target: T2, RNA demethylase ALKBH5; experiment: Inhibition of ALKBH5 in human MV4-11 cells assessed as increase in m6A methylation levels by dot blot assay; type: cell-based
Target sequence in this assay (Q6P6C2 2-394 limits assumed): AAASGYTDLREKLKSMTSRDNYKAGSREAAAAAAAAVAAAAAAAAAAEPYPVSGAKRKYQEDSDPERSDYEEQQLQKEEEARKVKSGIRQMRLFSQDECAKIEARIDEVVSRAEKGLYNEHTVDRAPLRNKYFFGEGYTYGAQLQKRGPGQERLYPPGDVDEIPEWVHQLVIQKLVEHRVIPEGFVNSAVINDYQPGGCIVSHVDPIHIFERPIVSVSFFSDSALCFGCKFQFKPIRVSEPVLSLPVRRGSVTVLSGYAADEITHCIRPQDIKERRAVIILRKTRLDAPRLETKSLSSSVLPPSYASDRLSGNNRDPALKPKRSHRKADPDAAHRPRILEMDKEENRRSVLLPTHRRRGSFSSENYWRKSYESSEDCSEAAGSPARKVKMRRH

RNA demethylase ALKBH5 [8] = target: T2, RNA demethylase ALKBH5; experiment: Binding affinity to ALKBH5 (66 to 292 residues) (unknown origin) extracted from Escherichia coli BL21 (DE3) cells assessed as dissociation constant incubated for 5 hrs by MST analysis
Target sequence in this assay (Q6P6C2 whole entry, the tested form may be a part): as the sequence (Q6P6C2 whole entry, the tested form may be a part) above

RNA demethylase ALKBH5 [9] = target: T2, RNA demethylase ALKBH5; experiment: Binding affinity to ALKBH5 (66 to 292 residues) (unknown origin) extracted from Escherichia coli BL21 (DE3) cells assessed as dissociation constant incubated for 1.5 hrs by MST analysis
Target sequence in this assay (Q6P6C2 whole entry, the tested form may be a part): as above

[10] = target: T3, Alpha-ketoglutarate-dependent dioxygenase alkB homolog 3 (Homo sapiens) (UniProt Q96Q83); experiment: Induction of thermal stabilization of ALKBH3 (unknown origin) assessed as change in melting temperature by thermal shift assay
T3 sequence (whole entry): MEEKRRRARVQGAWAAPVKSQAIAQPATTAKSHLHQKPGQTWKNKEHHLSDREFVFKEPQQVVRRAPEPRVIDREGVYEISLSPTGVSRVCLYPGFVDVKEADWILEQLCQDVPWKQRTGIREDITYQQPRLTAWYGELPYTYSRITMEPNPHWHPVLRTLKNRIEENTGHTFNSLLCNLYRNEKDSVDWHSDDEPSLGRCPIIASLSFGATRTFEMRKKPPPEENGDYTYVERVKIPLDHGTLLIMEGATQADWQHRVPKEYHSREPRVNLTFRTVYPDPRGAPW

RNA demethylase ALKBH5 [11] = target: T2, RNA demethylase ALKBH5; experiment: Inhibition of ALKBH5 (66 to 292 residues) (unknown origin) extracted from Escherichia coli BL21 (DE3) cells using m6A ssDNA as substrate at 5 uM incubated for 2 hrs by TBE-PAGE based restriction enzyme digestion assay
Target sequence in this assay (Q6P6C2 2-394 limits assumed): as the sequence (Q6P6C2 2-394 limits assumed) above

RNA demethylase ALKBH5 [12] = target: T2, RNA demethylase ALKBH5; experiment: Induction of thermal stabilization of wild type ALKBH5 (66 to 292 residues) (unknown origin) extracted from Escherichia coli BL21 (DE3) cells assessed as melting temperature by thermal shift assay (reference value: 47.30 degreeC)
Target sequence in this assay (Q6P6C2 2-394 limits assumed): as above

[13] = target: T1, Alpha-ketoglutarate-dependent dioxygenase FTO; experiment: Inhibition of FTO (32 to 505 residues) (unknown origin) extracted from Escherichia coli BL21 (DE3) cells by fluorescence polarization assay
RNA demethylase ALKBH5 [14] = target: T2, RNA demethylase ALKBH5; experiment: Induction of thermal stabilization of ALKBH5 in human MOLM-13 cells at 20 uM incubated for 30 min and measured after 3 mins incubation under 45 to 65 degreeC by […] assay; type: cell-based; details: time 33.0 min
Target sequence in this assay (Q6P6C2 2-394 limits assumed): as above

MOLM-13 [15] = experiment: Induction of apoptosis in human MOLM-13 cells assessed as early apoptotic cells at 40 uM incubated for 72 hrs by Annexin V FITC/PI staining based flow cytometry analysis (reference value: 4.32%); type: functional
RNA demethylase ALKBH5 [16] = target: T2, RNA demethylase ALKBH5; experiment: Potency index, ratio of 2-(((2-nitrophenyl)sulfonyl)carbamoyl)isonicotinic acid IC50 to test compound IC50 for inhibition of ALKBH5 (66 to 292 residues) (unknown origin) extracted from Escherichia coli BL21 (DE3) cells using m6A ssDNA as substrate measured after 1 hrs by fluorescence polarization assay
Target sequence in this assay (Q6P6C2 2-394 limits assumed): as above

RNA demethylase ALKBH5 [17] = target: T2, RNA demethylase ALKBH5; experiment: Inhibition of ALKBH5 (66 to 292 residues) (unknown origin) demethylase activity extracted from Escherichia coli BL21 (DE3) cells at 200 uM preincubated for 3 hrs and measured after compound washout by small molecule dilution method
Target sequence in this assay (Q6P6C2 2-394 limits assumed): as above

RNA demethylase ALKBH5 [18] = target: T2, RNA demethylase ALKBH5; experiment: Inhibition of ALKBH5 (66 to 292 residues) (unknown origin) extracted from Escherichia coli BL21 (DE3) cells using m6A ssDNA as substrate measured after 1 hrs by fluorescence polarization assay
Target sequence in this assay (Q6P6C2 whole entry, the tested form may be a part): as the sequence (Q6P6C2 whole entry, the tested form may be a part) above

MOLM-13 [19] = experiment: Induction of cell cycle arrest in human MOLM-13 cells assessed as accumulation of cells at G2/M phase at 80 uM incubated for 72 hrs by flow cytometry analysis (reference value: 17.53 %); type: functional
RNA demethylase ALKBH5 [20] = target: T2, RNA demethylase ALKBH5; experiment: Binding affinity to ALKBH5 (66 to 292 residues) (unknown origin) extracted from Escherichia coli BL21 (DE3) cells assessed as dissociation constant incubated for 1 hrs by MST analysis
Target sequence in this assay (Q6P6C2 whole entry, the tested form may be a part): as above

RNA demethylase ALKBH5 [21] = target: T2, RNA demethylase ALKBH5; experiment: Binding affinity to ALKBH5 (66 to 292 residues) (unknown origin) extracted from Escherichia coli BL21 (DE3) cells at 1:1 protein:compound ratio by mass spectrometry analysis
MOLM-13 [22] = experiment: Induction of apoptosis in human MOLM-13 cells assessed as viable cells at 80 uM incubated for 72 hrs by Annexin V FITC/PI staining based flow cytometry analysis (reference value: 89.65%); type: functional; details: read-out: Activity
[23] = target: T1, Alpha-ketoglutarate-dependent dioxygenase FTO; experiment: Binding affinity to FTO (32 to 505 residues) (unknown origin) extracted from Escherichia coli BL21 (DE3) cells assessed as dissociation constant by ITC assay
MOLM-13 [24] = experiment: Downregulation of AXL mRNA expression levels in human MOLM-13 cells at 10 to 80 uM incubated for 72 hrs by qRT-PCR analysis; type: functional, cell-based; details: dose 10-80 µM
RNA demethylase ALKBH5 [25] = target: T2, RNA demethylase ALKBH5; experiment: Inhibition of ALKBH5 (66 to 292 residues) (unknown origin) extracted from Escherichia coli BL21 (DE3) cells using m6A ssDNA as substrate assessed as Kinact/Ki ratio measured after 6 hrs by fluorescence polarization assay
MOLM-13 [26] = experiment: Induction of cell cycle arrest in human MOLM-13 cells assessed as accumulation of cells at S phase at 40 uM incubated for 72 hrs by flow cytometry analysis (reference value: 17.47 %); type: functional
MOLM-13 [27] = experiment: Induction of cell cycle arrest in human MOLM-13 cells assessed as accumulation of cells at S phase at 80 uM incubated for 72 hrs by flow cytometry analysis (reference value: 17.47 %); type: functional
MOLM-13 [28] = experiment: Induction of cell cycle arrest in human MOLM-13 cells assessed as accumulation of cells at G0/G1 phase at 40 uM incubated for 72 hrs by flow cytometry analysis (reference value: 65.53 %); type: functional

O=Cc1cc(S(=O)(=O)NC(=O)c2cc(C(=O)O)ccn2)c2ccccc2c1O
IC50 [1]: 19700 nM | Activity (MOLM-13 [2]): Active | Ratio IC50 [3]: 30 | Ratio IC50 [4]: 20 | IC50 (RNA demethylase ALKBH5 [5]): 260 nM | IC50 (RNA demethylase ALKBH5 [6]): 280 nM | inhibition (RNA demethylase ALKBH5 [7]): Active | Kd (RNA demethylase ALKBH5 [8]): 560 nM | Kd (RNA demethylase ALKBH5 [9]): 1140 nM | ΔTm [10]: < 1 °C | inhibition (RNA demethylase ALKBH5 [11]): Active | Tm (RNA demethylase ALKBH5 [12]): 49.9 °C | IC50 [13]: 14200 nM | Activity (RNA demethylase ALKBH5 [14]): Active | Activity (MOLM-13 [15]): 10.4% | Ratio IC50 (RNA demethylase ALKBH5 [16]): 287 | inhibition (RNA demethylase ALKBH5 [17]): Active | IC50 (RNA demethylase ALKBH5 [18]): 480 nM | Activity (MOLM-13 [19]): 22.22% | Kd (RNA demethylase ALKBH5 [20]): 2630 nM | Activity (RNA demethylase ALKBH5 [21]): Active; Mass Peak Of 28,181.6 Da Observed | viability at 80 µM (MOLM-13 [22]): 77.6% | Kd [23]: 27600 nM | Activity (MOLM-13 [24]): Active | Ratio (RNA demethylase ALKBH5 [25]): 0.03 µM⁻¹ min⁻¹ | Activity (MOLM-13 [26]): 5.67% | Activity (MOLM-13 [27]): 4.11% | Activity (MOLM-13 [28]): 68.23%
